{"source": "patent US6794148B2", "about": "“High speed, automated, continuous flow, multi-dimensional molecular selection and analysis” (PerSeptive Biosystems, Inc., priority 1995, dated 2004)", "key": {"mouse IgG, Fc fragment": {"system": "mouse IgG, Fc fragment", "test": "Binding of mouse IgG Fc fragment on POROS 19-mer peptide column", "conditions": "peptide synthesized directly on POROS NH2 resin via C-terminal end; eluted with acid buffer", "protocol": "(§1) The 19-mer peptide ([…]) (SEQ ID NO: 7) selected from protein A and G digests was directly synthesized on 20 μm amine-functionalized™ particles by standard FMOC chemistry. About 700 mg of resin was dry packed into a 4.6 mm D×50 mm L PEEK column equipped with 2 μm frits. The packed column was attached with appropriate adapters to a PerSeptive Biosystems 9050 plus continuous flow peptide synthesizer. Upon completion of synthesis, the resin was dried and deprotected using 95% TFA/5% triisopropylsilane for 24 hrs. The final peptide-support conjugate was packed using POROS™ Self Pack® column packing device at flow rate 10 ml/min onto 4.6 mm D×50 mm L column for evaluation as affinity supports.\n(§2) The 19-mer peptide column (4.6 mm D×50 mm L) was equilibrated with 20 CVs of equilibration buffer, 20 mM tris (pH 7). About 500 μl of 1 mg/ml of each of the following samples was injected onto the 19-mer peptide column (4.6 mm D×50 mm L): 1) pure IgGs from either human or mouse or chicken, 2) IgA (whole molecule), 3) human serum, 4) fetal bovine serum (1:10 dilution), or 5) 500 μl of 1 mg/ml mouse […]. After injection, the column was washed with 20 CVs of a mixture of 20 mM tris buffer and 0.4 M NaCl (pH 7). The remaining bound proteins were eluted with 20 CVs of 12 mM HCl. […] The bound fractions were collected and analyzed by SDS-Polyacrylamide gel electrophoresis."}, "IgG [1]": {"system": "IgG", "test": "Immunoglobulin class and species selectivity of POROS 19-mer peptide column", "type": "binding", "protocol": "as §1, §2"}, "mouse IgG (Fc fragment)": {"system": "mouse IgG (Fc fragment)", "test": "Solution phase peptide screening (SEC - reversed phase) of protein A and G digests", "type": "binding", "conditions": "native and denatured recombinant protein A and G digests", "protocol": "(§3) 5 mg each of either mouse IgG (whole) or the Fc fragment was incubated with 20 mg of natural library and protein A and G digests, respectively. The mixture was dissolved in 1 ml of a mixture of 25 mM sodium phosphate buffer and 0.15 M NaCl (pH 7) overnight at 4° C. After incubation, several chromatographic runs through the Superdex SEC and RP columns were conducted with 200 of the protein and peptide mixture injected through the Superdex column during each run. The flow rate for the Superdex column was 0.75 m/min with the 25 mM sodium phosphate buffer and 0.15 M NaCl (pH 7) mixture. The early eluting protein peak was collected directly onto the RP column. The remaining portion of the peak was washed off the SEC. The mouse IgG (whole) or Fc fragment and its associated peptides were then eluted from the RP column under the following conditions:\nFractions corresponding to bound peptide peaks were lyophilized and redissolved in 1001 of 0.1% TFA/DIW for mass spec analysis by MALDI-TOF."}, "IgG [2]": {"system": "IgG", "test": "IgG purification from human serum on POROS-immobilized peptide column", "type": "binding", "conditions": "for IgG binding capacity of POROS-peptide column: peptide immobilized on POROS AL via N-terminal end", "protocol": "1 g POROS™ AL (aldehyde) was suspended in 10 mM PBS (pH 7.5) containing 100 mg sodium cyanoborohydride (NaCNBH3). 5 to 20 mg of each of the peptides selected by various screening procedures was added to the resin and the mixture was shaken overnight at room temperature. 100 mg sodium borohydride (NaBH4) was then added and the mixture was shaken for another 2 hrs. The beads were then washed with PBS and packed into 4.6 mm D×100 mm L column using POROS™ Self Pack® device.\n100 μl of 1:10 diluted serum was injected onto the peptide column which was equilibrated with 20 mM tris (pH 8.0) at 5 ml/min. The bound proteins were eluted with 0-1 M NaCl gradient in 15 CVs. Fractions were collected manually and concentrated by Speed Vac for subsequent analysis by SDS-polyacrylamide gel electrophoresis.\nThe […] (SEQ ID NO: 8) peptide with heme group was immobilized on POROS™AL® (aldehyde) via the N-terminal end. This POROS™-peptide conjugate was used to separate IgG from serum at pH 8 under a 0-1 M NaCl gradient. […] To determine the nature of interaction, the purification profile of IgG separated on the POROS™-peptide column was compared with the IgG purified on standard ion exchange columns such as POROS™-CM and POROS™ HQ. […] The effect of the varying loading densities of peptide (from 10 mg/g POROS™ to 100 mg/g POROS™) on specificity and capacity for IgG binding was also investigated. The specificity of the peptide for IgG binding was also investigated. […] At low loading density (10 mg/g POROS™) IgG bound primarily via ionic interaction requiring elution of bound IgG with salt gradient. At higher loading density ([…]) IgG bound strongly and eluted with acid buffer. The binding capacity varied from 1-2 mg/ml column volume at lower ligand density to 30 mg/ml column volume at higher ligand densities.\nA simplified analog of the heme peptide ([…]) (SEQ ID NO: 9) was synthesized and immobilized on POROS™ AL via the N-terminal end. […] The bound IgG was eluted from the GAQGHTVBK (SEQ ID NO: 9)-POROS™ column with 100 mM NaCl. The IgG binding capacity was determined to be 5 mg/ml column volume. Loading densities from 20 mg/g to 40 mg peptide /g POROS™ were evaluated. At these ligand densities, the specificity of IgG binding was not affected, but the capacity was reduced."}, "IgG [3]": {"system": "IgG", "test": "Solid phase screening of polyclonal antibody digests on immobilized IgG column", "type": "binding", "conditions": "tryptic digests of anti-IgG (Fc specific) polyclonal antibodies", "protocol": "[…] POROS™ EP (epoxy) was suspended in 5 ml 0.1 M phosphate buffer (pH 9) containing 20 mg IgG. After the beads were well suspended, 4 ml 0.1 M phosphate buffer (pH 9) containing 2 M NA2SO4 were added to the mixture and it was shaken overnight at room temperature. The beads were then washed with 10 mM PBS (pH 7.5) and stored in the refrigerator before they were packed into columns.\nThe IgG activated POROS™ was packed into 4.6 mm D×100 mm L PEEK columns using Self Pack® assembly on BioCAD™ at 20 ml/min flow rate. 5 to 50 mgs peptide library (natural peptide library or polyclonal antibody digest) dissolved in 0.5 to 2.5 ml of 10 mM PBS (pH 7.5) was injected onto the column at flow rate of 0.5 ml/min. After wash with 5 CVs of PBS, the bound portion was eluted with 10 mM HCl and collected manually. The fraction was concentrated down to approximately 500 μl and at least 80% of it was injected onto a 4.6 mm D×250 mm L Vydac C18 column at 1 m/min. The RP column was equilibrated with 0.1% TFA/DIW and peptides were eluted with 15 CVs of a 0-40% acetonitrile gradient at flow rate of 1 ml/min. […] The fractions corresponding to the bound peptides were concentrated in Speed Vac and analyzed by MALDI-TOF and Edman sequencing. […]\nPolyclonal antibodies are an interesting and logical source of peptides since they have specific antigen binding sites. […] The amino acid sequence was determined to be […] […]"}, "Concanavalin A (Con A) [4]": {"biological_target": "Concanavalin A (Con A) (Canavalia ensiformis, UniProt P02866)", "excerpt": "(§4) The lectin Concanavalin A (Con A) has been used. Ligands were screened for specific binding to the sugar site of Con A as an example of the bimolecular approach to screening a mixture of components for interaction with a target. Biotinylated succinyl Con A was immobilized onto a streptavidin POROS™ support (BA cartridge, 2.1×30 mm). […] After exposing the column to 10 CVs of CAB buffer (0.2 m/min.), the remaining peptides were acid eluted onto a RP column. These peptides were eluted from a RP HPLC column using an acetonitrile gradient and the fractions were collected, pooled and sequenced. Recovery of each amino acid was expressed as a percentage of the total amount of amino acids recovered at each cycle of sequencing (AA %). Amino acid enrichment was then expressed for each amino acid as follows: [formula]"}, "Concanavalin A (Con A) [5]": {"system": "Concanavalin A (Con A)", "excerpt": "as §4"}, "HSA": {"biological_target": "T1, HSA (Homo sapiens, UniProt P02768)", "T1 construct": "purchased Sigma Chemical Co (St. Louis, Mo.)", "test": "HSA binding to heme peptide POROS", "conditions": "only under very hydrophobic conditions (200 mM sodium sulphate, pH 7 buffer)"}, "[6]": {"system": "mouse IgG (whole fragment)", "test": "Solution phase and solid phase peptide screening of natural peptide library", "type": "binding", "protocol": "as §3\nThe IgG activated POROS™ was packed into 4.6 mm D×100 mm L PEEK columns using Self Pack® assembly on BioCAD™ at 20 ml/min flow rate. 5 to 50 mgs peptide library (natural peptide library or polyclonal antibody digest) dissolved in 0.5 to 2.5 ml of 10 mM PBS (pH 7.5) was injected onto the column at flow rate of 0.5 ml/min. After wash with 5 CVs of PBS, the bound portion was eluted with 10 mM HCl and collected manually. […] The fractions corresponding to the bound peptides were concentrated in Speed Vac and analyzed by MALDI-TOF and Edman sequencing. […]"}, "IgG [7]": {"system": "IgG", "test": "IgG purification from human serum on POROS-immobilized peptide column", "type": "binding", "conditions": "immobilized via carboxyl groups of heme and free C-terminal end"}}, "note": "No end group written: not given here."}
{"substance": "TVTEKPEVIDASELTPAVT (also: synthesized on POROS) [19-mer peptide selected from protein A and G digests, synthesized on POROS]", "values": [{"measurement": "binding of mouse IgG Fc fragment (capacity and selectivity)", "setting": "mouse IgG, Fc fragment", "value": "low capacity but high selectivity"}, {"measurement": "selectivity IgG versus IgA", "setting": "IgG [1]; POROS 19-mer peptide column", "value": "more selective for IgG than IgA"}, {"measurement": "species selectivity of IgG binding", "setting": "IgG [1]; human versus rabbit, goat or mouse IgG", "value": "Human IgG bound more selectively"}, {"measurement": "selected as binder in solution phase screening", "setting": "mouse IgG (Fc fragment)", "value": "identified"}]}
{"substance": "GAQGHTVEK (OTHER INFORMATION: Description of Artificial Sequence: synthetic peptide) [simplified analog of the heme peptide; also isolated from polyclonal antibody digests]", "values": [{"measurement": "specificity of IgG binding from human serum", "setting": "IgG [2]; pH 8, immobilized on POROS via N-terminal end", "value": "bound specifically"}, {"measurement": "IgG binding capacity of POROS-peptide column", "setting": "IgG [2]; pH 8", "value": 5, "unit": "mg/ml column volume"}, {"measurement": "selectivity of peptide isolated from denatured antibody digest", "setting": "IgG [3]", "value": "selective for IgG"}]}
{"substance": "HHRSY", "values": [{"measurement": "displacement by competing sugar ligand", "setting": "Concanavalin A (Con A) [4]; high concentration of competing sugar ligand", "value": "displaced somewhat"}, {"measurement": "binding to Con A immobilized on the column", "setting": "Concanavalin A (Con A) [4]; synthesized peptide", "value": "capable of binding specifically to Con A"}, {"measurement": "binding to control column", "setting": "Concanavalin A (Con A) [5]", "value": "little binding to the control column"}]}
{"substance": "CAQCHTVEK (cysteine pairing not given here; also: heme group) [tryptic digest peptide of cytochrome c with heme group, immobilized on POROS AL]", "values": [{"measurement": "selectivity for IgG from serum versus ion exchange columns", "setting": "IgG [2]; compared with POROS-CM and POROS HQ, similar conditions", "value": "higher selectivity for IgG from serum than either of the ion exchange columns"}, {"measurement": "IgG binding capacity at higher ligand densities", "setting": "IgG [2]; higher loading density (100 mg/mg)", "value": 30, "unit": "mg/ml column volume"}, {"measurement": "IgG binding capacity at lower ligand density", "setting": "IgG [2]; low loading density (10 mg/g POROS)", "value": "1-2 mg/ml column volume"}, {"measurement": "purity of IgG purified from serum", "setting": "IgG [2]; pH 8, 0-1 M NaCl gradient, versus POROS-Protein A", "value": "comparable purity to that of IgG separated on POROS™-Protein A column"}, {"measurement": "IgG binding capacity of POROS-peptide column", "setting": "IgG [2]; pH 8", "value": 10, "unit": "mg/ml column volume"}, {"measurement": "binding to HSA", "setting": "HSA", "value": "bound very weakly"}, {"measurement": "selected as binder in library screening", "setting": "[6]", "value": "yielded one peptide"}, {"measurement": "IgG binding when immobilized via carboxyl groups", "setting": "IgG [7]", "value": "no IgG binding"}]}
